# Results published in article PMC4116523, “Novel peptides suppress VEGFR-3 activity and antagonize VEGFR-3-mediated oncogenic effects” (Oncotarget, 2014).
# Bridges are numbered along the chain shown (N, C = ends). Where no end group is shown, it is not given here.
# What was measured:
# [1] = system: human soluble protein kinase VEGFR-3 (sVEGFR-3); assay: VEGFR-3 kinase assay ([32P]ATP, poly(Glu:Tyr); Eurofins Panlabs); assay type: biochemical; conditions: peptides screened at 10 μM, 0.1 μg/ml enzyme, HEPES pH 7.4, 15 min preincubation 37°C, 10 μM ATP, [γ32P]ATP, 30 min, Figure 1B
# Procedure: Kinase assays were performed as previously described. Briefly, human soluble protein kinase VEGFR-3 (sVEGFR-3) that was expressed in insect cells was used for the kinase assays. The candidate peptides were preincubated with 0.1 μg/ml of enzyme in modified HEPES buffer pH 7.4 for 15 minutes at 37°C. The reaction was initiated by addition of 0.2 mg/ml poly(Glu:Tyr), 10 μM ATP and 0.25 μCi [γ^32P]ATP for another 30 minute incubation period and terminated by further addition of 3% H3PO4. Aliquots were removed and counted to determine the amount of [^32P] Poly(Glu:Tyr) that formed. Compounds were screened at 10 μM. All peptides were analyzed by Eurofins Panlabs Taiwan Ltd.
# sVEGFR-3 = assay: Competition assay of synthesized peptides with rhVEGF-C for binding to plate-bound sVEGFR-3 (ELISA); parameters: species or system human; conditions: sVEGFR-3 250 ng/mL coated; peptide 6 h RT, then rhVEGF-C 300 ng/mL 6 h; ELISA A450/650; mean of three independent experiments; Figure 1A
# Procedure: Soluble VEGFR-3 (sVEGFR-3) (250 ng/mL) (Angio-Proteomie, Boston, MA) was immobilized on 96-well plates and blocked with phosphate buffer containing 1% BSA for 1 hour at room temperature. In competition experiments, peptides were incubated with the VEGFR-3-coated plates for 6 hours at room temperature. After incubation, human recombinant VEGF-C protein (rhVEGF-C, 300 ng/mL, 100 μL) was added directly to the wells without removal of the peptides and then incubated at room temperature for 6 hours. The plates were thoroughly washed with 0.1% BSA/PBS buffer (pH 8.5), and anti–VEGF-C Ab was added at 4°C for 24 hours. Biotin-conjugated goat anti-rabbit IgG antibody was added for 1 hour. HRP-conjugated streptavidin was then added for 30 minutes. The free streptavidin conjugate was washed away and freshly prepared substrate solution (TMB) was then added to each well. The reaction was allowed to stand for 15 minutes, and the color development was stopped by the addition of H3PO4 (1.0 mol/L). The absorbance at 450 nm was read with a reference wavelength of 650 nm (A450/650).
# A549 cells [2] = assay: VEGF-C-induced drug resistance (Taxol, cisplatin), MTT assay; assay type: cell-based, human; conditions: A549, peptides 200 μM, rhVEGF-C 100 ng/mL, Taxol or cisplatin; Figure S3
# Procedure: A549 lung cancer cells (3×10^3) were cultured in 96-well plates and serum-starved for 24 hours. Cells were treated with the candidate peptides (200 μM) for 4 hours and were treated with rhVEGF-C (100 ng/mL) for 6 hours in serum-free medium. After 48 hours, MTT (5 mg/ml) was added for 3 hours and the precipitates were dissolved in DMSO. The absorbance at 570 nm was read with a reference wavelength of 630 nm (A570/630).
# [3] = system: lymphatic endothelia cells (LECs); assay: VEGF-C-induced VEGFR-3 phosphorylation, migration and proliferation in LECs (western blot, Boyden chamber, MTT); assay type: cell-based, human; conditions: MTT (96 hrs), Figure 4A
# A549 cells [4] = assay: VEGF-C-induced drug resistance (Taxol, cisplatin), DNA flow cytometric and trypan blue exclusion assays; assay type: cell-based, human; conditions: A549, rhVEGF-C, 20 nM Taxol or 10μM cisplatin 48 hours; flow cytometry (PI) and trypan blue exclusion; Figure 3E-3H
# Procedure: Briefly, cells were treated with 20 nM Taxol or 10μM cisplatin and incubated for 48 hours. Samples were prepared and analyzed as previously described.
# Briefly, cells were harvested using trypsin and stained with 0.4% trypan blue dye (Sigma-Aldrich). Trypan blue-positive and -negative cells were counted using a hemacytometer (Hausser Scientific, Horsham, PA) under a phase-contrast microscope (Fisher Scientific, Pittsburgh, PA). The results of each assay were expressed in terms of the percentage of dead cells relative to the total number of cells. Individual experiments were performed in triplicate.
# SOX2 = SOX2 expression by reverse transcription PCR in A549 spheres; assay type: cell-based, human; conditions: A549 spheres grown 10 days; Figure S6
# Procedure: Total RNA was isolated after A549 spheres had grown for 10 days by using Trizol (Invitrogen, Carlsbad, CA), and cDNA were synthesized with Oligo dT (Thermo Scientific, Brookfield, WI). The specific primers for SOX2 were 5'-TACAACATGATGGAGACG-3' and 5'-[…]-3'. The reaction was cycled at 95°C for 40 seconds, then 56°C for 40 seconds, and then 72°C for 30 seconds for 30 cycles followed by a final extension of 72°C for 5 minutes.
# [5] = system: various cancer cell lines (MDA-MB-231, BT474, HS578T, HBL100, MDA-MB-361, MCF-7, CL1-5, H460, H322); assay: VEGF-C-induced VEGFR-3 phosphorylation, migration and invasion in various cancer cell lines; assay type: cell-based, human; conditions: various breast and lung cancer cell lines; Figure 4B-4E, Figure S4
# Procedure: (§1) Cells were incubated in serum-free DMEM/F12 for 24 hours before treatment with or without rhVEGF-C (100 ng/mL). Cells were lysed in RIPA buffer [Tris-HCl (50 mM; pH 7.5), NaCl (120 mM), NP-40 (0.5%), Na3VO4 (200 mM), EDTA (100 mM), sodium deoxycholate (0.5%), SDS (1%)] for 10 minutes on ice. An equal quantity of protein from the cell lysates was resuspended in gel sample buffer, resolved by 10% SDS-PAGE, and transferred to polyvinylidene difluoride membrane membranes (Millipore Corp., Milford, MA). After blocking, membranes were incubated with specific primary antibodies and corresponding secondary antibodies. Immunoreaction signals were visualized by an enhanced chemiluminescence detection system (PerkinElmer Health Sciences, Waltham MA).
# Boyden chamber cell migration assays were performed using uncoated transwells and matrigel-coated transwells with membranes (8 μm pore-size) (Becton Dickinson, Mountain View, CA). The chambers were inserted into 24-well culture plates that contained DMEM/F12 with 10% fetal bovine serum. The cells were pretreated with peptide (100 μM) in serum-free DMEM/F12 medium and were loaded into the transwells. […] The migrated cells were quantified by blind counting of the migrated cells on the lower surface of the membrane from at least 10 fields per chamber using a 20X objective. […]
# VEGFR-3 [6] = assay: KIRA-ELISA of tyr-phosphorylated VEGFR-3 in VEGF-C-treated H928 lung cancer cells; assay type: cell-based, human; conditions: serum-starved, peptide 30 min then rhVEGF-C 15 min, Figure 1C
# Procedure: H928 lung cancer cells (2×10^5) were cultured in 24-well plates and serum-starved for 24 hours. Cells were pretreated with candidate peptide for 30 minutes and then treated with rhVEGF-C for 15 minutes. Cells were solubilized in RIPA lysis buffer for 60 minutes. Another 85 μl of cell lysate was transferred to an ELISA well that was coated with VEGFR-3 and incubated for 2 hours. After the plates were washed, biotinylated-4G10 antibody (500 ng/ml, 100 μl) was added and incubated for 2 hours. After the plates were washed, HRP-conjugated streptavidin was then added for 30 minutes. The free avidin conjugate was washed away and freshly prepared substrate solution (TMB) was then added to each well. The reactions were allowed to proceed for 10 minutes, and the color development was stopped by the addition of H3PO4 (1.0 mol/L). The absorbance at 450 nm was read with a reference wavelength of 650 nm (A450/650).
# [7] = system: MDA-MB-231/VEGF-C lung metastasis; assay: Experimental metastasis assay, MDA-MB-231/VEGF-C cells by tail vein, bioluminescent imaging of lung; assay type: in vivo; conditions: SCID mice, n=8, peptide 8 μg/g body weight i.v., one day before cells then twice weekly for 8 weeks; bioluminescence; control peptide P4; Figure 5
# Procedure: All animal work was performed in accordance with protocols that were approved by the Institutional Animal Care and Use Committee of the National Health Research Institutes. All of the animal experiments were performed on 6- to 8-week-old CB-17 severe combined immunodeficient (SCID) female mice (supplied by LASCO, Taiwan) with eight animals per group. The control (P4), P5 and P6 peptides were pretreated with 8 μg/g body weight dissolved in 50 μl PBS and i.v. injected into mice one day before cancer cell injection. For experimental metastasis assays, 2.5 × 10^5 viable cells were resuspended in 0.1 mL of PBS and introduced into the circulation via tail vein injection. For the treatment, peptides were administered (8 μg/g body weight) twice weekly for 8 weeks. The luciferase-based, non-invasive bioluminescent imaging and analysis were performed with the Xenogen IVIS-200 system (Xenogen, Alameda, CA, USA).
# [8] = system: MDA-MB-231 breast cancer cells; assay: Boyden chamber migration/invasion assay, MDA-MB-231; assay type: cell-based, human; conditions: peptide 100 μM, 24 hours, uncoated / matrigel-coated transwells, Figure 3
# Procedure: (§2) Boyden chamber cell migration assays were performed using uncoated transwells and matrigel-coated transwells with membranes (8 μm pore-size) (Becton Dickinson, Mountain View, CA). The chambers were inserted into 24-well culture plates that contained DMEM/F12 with 10% fetal bovine serum. The cells were pretreated with peptide (100 μM) in serum-free DMEM/F12 medium and were loaded into the transwells. After 24 hours, non-migrated cells were removed with a cotton swab and the cells were fixed with methanol for 15 min and stained with crystal violet. The migrated cells were quantified by blind counting of the migrated cells on the lower surface of the membrane from at least 10 fields per chamber using a 20X objective. All migration and invasion assays were normalized to the proliferation rate.
# A549 lung cancer cells = assay: Boyden chamber migration/invasion assay, A549; assay type: cell-based, human; conditions: peptide 100 μM, 24 hours, uncoated / matrigel-coated transwells, Figure 3
# Procedure: as §2
# Src = assay: Western blot of Src phosphorylation (VEGFR-3-mediated signaling pathway); assay type: cell-based, human; conditions: A549 and 293T/VEGFR-3 cells, rhVEGF-C, Figure 2A, 2B
# Procedure: as §1
# VEGFR-3 [9] = assay: Western blot of VEGF-C-induced VEGFR-3 Tyr1063/1068 phosphorylation; assay type: cell-based, human; conditions: A549 and 293T/VEGFR-3 cells, peptides 24 hours, rhVEGF-C, Figure 2A, 2B
# Procedure: as §1
# MCF-7 cells = assay: Sphere-forming assay (tumor initiating cells), MCF-7; assay type: cell-based, human; conditions: peptide 200 μM, rhVEGF-C 200 ng/mL, 10 days non-adherent, Figure S5B
# Procedure: (§3) A549 and MCF-7 cells were serum-starved for 24 hours. The cells were pretreated with candidate peptides (200 μM) in the presence or absence of rhVEGF-C for 24 hours. The cells were trypsinized and mechanically dissociated to generate single cells that were then seeded at a density of 1×10^3 cells/ml in serum-free DMEM/F12 medium (Invitrogen, Carlsbad, CA) that was freshly supplemented with epidermal growth factor (20 ng/ml), basic fibroblast growth factor (20 ng/ml) (R&D Systems, Minneapolis, MN), 1X B27 supplement, 1X N2 supplement (Invitrogen, Carlsbad, CA) in the presence or absence of rhVEGF-C (200 ng/mL) and candidate peptides (200 μM) in non-adherent plates for 10 days. Quantification of sphere formation was determined by measuring the percentage of 5000 spheres.
# A549 cells [10] = assay: Sphere-forming assay (tumor initiating cells), A549; assay type: cell-based, human; conditions: peptide 200 μM, rhVEGF-C 200 ng/mL, 10 days non-adherent, Figure S5A
# Procedure: as §3
Sequence,inhibitory effects on VEGFR-3 kinase activity [1],levels of sVEGFR-3-bound VEGF-C (competition with VEGF-C binding) (sVEGFR-3),VEGF-C-induced drug resistance by MTT assay (A549 cells [2]),"VEGF-C-induced VEGFR-3 phosphorylation, cell migration and proliferation of LECs [3]",VEGF-C-induced drug resistance (A549 cells [4]),expression of SOX2 (SOX2),"VEGF-C-induced VEGFR-3 phosphorylation, cell migration and invasion [5]",inhibitory effects on the phosphorylation of VEGFR-3 (KIRA-ELISA) (VEGFR-3 [6]),VEGF-C-induced lung metastasis [7],migration and invasion [8],migration and invasion (A549 lung cancer cells),phospho-Src levels (Src),VEGF-C-induced VEGFR-3 Tyr1063/1068 phosphorylation (VEGFR-3 [9]),sphere formation enhanced by VEGF-C (number and size of spheres) (MCF-7 cells),sphere formation enhanced by VEGF-C (number and size of spheres) (A549 cells [10])
CLTSSLRSC (disulfide 1-9 (inferred)) [P8],49%,,,,,,,,,,,,,,
CYYGQSKYC (disulfide 1-9 (inferred)) [P6],72%,reduced the levels of bound VEGF-C in a significant and dose-dependent manner,inhibit,abolished,inhibit,decreased the expression of SOX2,significantly inhibited,highest inhibitory effects,significantly inhibited,Obvious decreases,Obvious decreases,decreased phospho-Src levels,dramatic suppressive effects,,
CNYSHLFYC (disulfide 1-9 (inferred)) [P5],82%,reduced the levels of bound VEGF-C in a significant and dose-dependent manner,inhibit,abolished,inhibit,decreased the expression of SOX2,significantly inhibited,highest inhibitory effects,significantly inhibited,Obvious decreases,Obvious decreases,decreased phospho-Src levels,dramatic suppressive effects,decreased the number and size of the spheres,decreased the number and size of the spheres
"CNDSHMKLC (disulfide 1-9 (inferred)) [P4, used as control peptide in later assays]",,reduced the levels of bound VEGF-C in a significant and dose-dependent manner,,,,,,,,,,,,,
CYYWQSKYC (disulfide 1-9 (inferred)) [P7],69%,,,,,,,,,,,,,,
